For one assay, the system named is lung line L2987. The assay is described as follows: Cytotoxicity assay (alamarBlue viability). The conditions noted are these: Homo sapiens. It is filed as cell-based. The procedure: Figure 1, 2 and 3 are the cytotoxicity dose response curves for lung line L2987. […] Briefly, the assayed involved plating 1000 cells per well in a volume of 120 µL in a 96 well flat-bottom dish (Corning) on day -1. Twenty-four hours later the appropriate dilution of a compound of formula I was added in a volume of 30 µL complete medium (final volume 150 µL). The plates were sealed with a plate sealer (Dynatech Labs) to prevent evaporation. On day 5 the mylar film was removed and 15 µL of sterile alamarBlue was added to each well and the cells were incubated 37 °C 5% CO2 for two hours. Using a Vmax plate reader the optical density for each well was determined having the OD570 subtracted from the OD600. The 100% signal was determined for cells grown in complete medium containing only 0.5% DMSO. All wells were set-up in triplicate and the mean values were plotted in Figures 1, 2 and 3.
A general note: The colour change of resazurin is a common sign of viable cells or microbes.

The subject of a further assay is rhino mouse. The assay is described as follows: Rhino mouse utriculi reduction assay. It is filed as in vivo, female hairless rhino mice (hr^rh/hr^rh). The conditions noted are these: concentration to reach 30% utriculi reduction; topical in ethanol vehicle (50ul) to dorsal area once daily for 5 days; tested range 0.00033 mM to 16.5 mM. The procedure: Representatives from compounds of formula I were tested for their effect on utriculi reduction on rhino mouse and directly compared to all-trans retinoic acid.
Six to nine week old female hairless rhino mice (hr^rh/hr^rh) were produced in the Bristol-Myers Squibb colony. Test retinoids in ethanol vehicle (50ul) were applied to the dorsal area (approximately 1.5 x 3 cm^2) of rhino mice once daily for 5 days (Monday to Friday). For various retinoids, a dose response was obtained with concentrations ranging from 0.00033 mM to 16.5 mM. The animals were sacrificed on the following Monday by CO2 inhalation. A 7/8" full thickness punch was taken from the central dorsal area of each animal. The epidermis of the biopsy was removed from the dermis after incubation in 0.5% acetic acid overnight at 4°C. The separated epidermis was then fixed in formalin, dehydrated with ethanol, and cleared in xylene. To determine the utriculi diameter, each epidermis sheet was placed on a glass slide in xylene. For each specimen, the diameter of 40 utricules was measured with an image analysis system (IBM PC, Image Measure program and Olympus microscope with video camera). % Utriculi reduction was calculated as (1 -(utriculi diameter in the test group)/(utriculi diammeter in the ethanol control group))× 100% [formula] […]

Setting [1] is: L2987, L2987 experiment 2, 1000 cells per well, compound added after 24 h, read on day 5, read-out: IC50.

Data on seven molecules can be found in patent publication EP0661259B1, “Substituted (5,6)-dihydronaphthalenyl compounds having retinoid-like activity” (BRISTOL-MYERS SQUIBB COMPANY, priority 1994, dated 1995).

pIC50: −log10 of the molar value. Where two headings read alike, the source gives them in different places.

For orientation: pIC50 means the IC50 on a negative log10 scale, so that one unit is a factor of ten. For `CC1(C)CC=C(c2ccccc2)c2cc(C(=O)Oc3ccc(C(=O)O)cc3)ccc21` [I^10a], the pIC50 in the assay on lung line L2987 (setting [1]) was 4.33.

Molecule `CC1(C)C=C(c2ccccc2)c2cc(C(=O)Nc3ccc(C(=O)O)cc3)ccc21` [I^30a, 4-[(1,1-Dimethyl-3-phenyl-1H-indene-5-carbonyl)amino]benzoic acid] had an ED30 in the assay with rhino mouse of 2.35. For the same molecule, the pIC50 with lung line L2987 (setting [1]) was 4.22.

Turning to `CC1(C)CC=C(c2ccccc2)c2cc(C(=O)Nc3ccc(C(=O)O)cc3)ccc21` [I^4a], the pIC50 in the assay with lung line L2987 (setting [1]) was 4.55.

Take `CC1(C)CC=C(c2ccccc2)c2cc(C(=O)Sc3ccc(C(=O)O)cc3)ccc21` [I^12a]: the negative logarithm of the IC50 (pIC50) in the assay on lung line L2987 (setting [1]) was less than 4.00.

Take `CC1(C)CC=C(c2ccccc2)c2cc(COc3ccc(C(=O)O)cc3)ccc21` [I^26a, 4-[[[(5,6-Dihydro-5,5-dimethyl-8-phenyl)-2-naphthalenyl]methyl]oxy]benzoic acid]: in the assay with lung line L2987 (setting [1]), the pIC50 is 4.32.

For `CC1=C(/C=C/C(C)=C/C=C/C(C)=C/C(=O)O)C(C)(C)CCC1` [All trans retinoic acid, reference compound], the pIC50 in the assay with lung line L2987 (L2987) is 4.17.

Consider `CC1(C)C=C(c2ccccc2)c2cc(C=Cc3ccc(C(=O)O)cc3)ccc21` [I^33a, 4-[2-(1,1-dimethyl-3-phenyl-1H-inden-5-yl)vinyl]benzoic acid], for which, in the assay with rhino mouse, the ED30 is reported as 0.86.
